Source: ChEMBL document CHEMBL1145498, “A systematic interaction map of validated kinase inhibitors with Ser/Thr kinases” (Proc Natl Acad Sci U S A, 2007)

target: Serine/threonine-protein kinase PAK 4 (Homo sapiens) (UniProt O96013)
Sequence (O96013 whole entry, looked up): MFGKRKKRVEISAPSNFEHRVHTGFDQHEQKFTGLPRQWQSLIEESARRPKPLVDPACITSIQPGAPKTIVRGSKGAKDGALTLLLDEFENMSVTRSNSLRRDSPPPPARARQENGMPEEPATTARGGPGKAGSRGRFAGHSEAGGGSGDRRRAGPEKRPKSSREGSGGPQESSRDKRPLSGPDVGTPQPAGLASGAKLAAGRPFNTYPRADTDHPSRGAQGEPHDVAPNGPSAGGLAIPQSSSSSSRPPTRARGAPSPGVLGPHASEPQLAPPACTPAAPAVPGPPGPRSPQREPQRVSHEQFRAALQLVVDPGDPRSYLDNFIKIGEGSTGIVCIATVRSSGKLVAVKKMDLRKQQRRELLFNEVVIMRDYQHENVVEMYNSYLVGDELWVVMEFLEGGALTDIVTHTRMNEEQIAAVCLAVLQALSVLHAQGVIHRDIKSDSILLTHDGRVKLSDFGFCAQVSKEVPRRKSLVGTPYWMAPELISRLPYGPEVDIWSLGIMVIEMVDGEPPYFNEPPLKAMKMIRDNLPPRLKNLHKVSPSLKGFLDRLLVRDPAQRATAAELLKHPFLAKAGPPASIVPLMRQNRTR

Structure (SMILES) | ΔTm [°C]
COc1nccc(-c2c(-c3ccc(F)cc3)ncn2[C@H]2CC[C@H](O)CC2)n1 | 0.7
Cc1cc(C=C2C(=O)C=CC2=O)cc(C)c1O | 0.7
C=CNC#N | 1.8
Cc1cc(Nc2nc(-c3ccccc3)nc3ccccc23)n[nH]1 | 5.9
c1ccc(-c2n[nH]c3c2oc2ccccc23)cc1 | -0.3
CCN(CC)CCNC(=O)c1c(C)[nH]c(/C=C2\C(=O)Nc3ccc(Cl)cc32)c1C [SU-11652] | 6.4

target: Ribosomal protein S6 kinase alpha-3 (Homo sapiens) (UniProt P51812)
Sequence (P51812 whole entry): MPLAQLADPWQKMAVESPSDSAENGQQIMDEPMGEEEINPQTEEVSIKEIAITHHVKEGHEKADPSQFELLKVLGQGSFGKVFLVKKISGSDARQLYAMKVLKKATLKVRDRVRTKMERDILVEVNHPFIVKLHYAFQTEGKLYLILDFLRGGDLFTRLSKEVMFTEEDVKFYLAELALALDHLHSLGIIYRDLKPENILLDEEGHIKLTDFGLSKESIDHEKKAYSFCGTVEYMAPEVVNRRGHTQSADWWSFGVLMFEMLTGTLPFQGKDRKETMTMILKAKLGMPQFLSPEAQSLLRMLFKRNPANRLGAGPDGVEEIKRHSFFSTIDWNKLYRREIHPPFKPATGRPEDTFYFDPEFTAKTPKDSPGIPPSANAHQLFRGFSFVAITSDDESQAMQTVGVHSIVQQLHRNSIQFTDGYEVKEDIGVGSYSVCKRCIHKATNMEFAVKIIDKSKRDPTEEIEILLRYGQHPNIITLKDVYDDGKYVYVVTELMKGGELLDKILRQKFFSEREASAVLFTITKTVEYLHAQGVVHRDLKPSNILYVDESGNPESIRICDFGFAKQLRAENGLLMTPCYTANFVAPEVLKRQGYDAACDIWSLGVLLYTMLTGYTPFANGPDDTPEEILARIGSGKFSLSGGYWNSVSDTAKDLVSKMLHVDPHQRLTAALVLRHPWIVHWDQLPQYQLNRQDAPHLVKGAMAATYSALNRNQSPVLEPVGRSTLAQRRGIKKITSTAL

Structure (SMILES) | ΔTm [°C]
COc1nccc(-c2c(-c3ccc(F)cc3)ncn2[C@H]2CC[C@H](O)CC2)n1 | 0.6
Cc1cc(C=C2C(=O)C=CC2=O)cc(C)c1O | 1.8
C=CNC#N | 0
Cc1cc(Nc2nc(-c3ccccc3)nc3ccccc23)n[nH]1 | 0.8
c1ccc(-c2n[nH]c3c2oc2ccccc23)cc1 | 0.8
CCN(CC)CCNC(=O)c1c(C)[nH]c(/C=C2\C(=O)Nc3ccc(Cl)cc32)c1C [SU-11652] | 8.5

target: T1, Serine/threonine-protein kinase 4 (Homo sapiens) (UniProt Q13043)
T1 sequence (whole entry): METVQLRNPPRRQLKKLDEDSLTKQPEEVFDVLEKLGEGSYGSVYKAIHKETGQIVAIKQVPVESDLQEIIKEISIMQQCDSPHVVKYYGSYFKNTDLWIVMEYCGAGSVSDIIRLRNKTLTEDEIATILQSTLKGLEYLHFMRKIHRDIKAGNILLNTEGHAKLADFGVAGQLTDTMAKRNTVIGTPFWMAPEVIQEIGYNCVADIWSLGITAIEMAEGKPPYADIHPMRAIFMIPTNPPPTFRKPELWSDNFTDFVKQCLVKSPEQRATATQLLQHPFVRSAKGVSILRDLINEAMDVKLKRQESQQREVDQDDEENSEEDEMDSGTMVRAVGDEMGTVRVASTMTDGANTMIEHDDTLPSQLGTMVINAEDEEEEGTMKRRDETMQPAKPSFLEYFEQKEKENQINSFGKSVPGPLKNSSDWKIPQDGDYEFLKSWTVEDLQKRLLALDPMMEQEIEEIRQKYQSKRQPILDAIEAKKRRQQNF

Structure (SMILES) | ΔTm [°C]
COc1nccc(-c2c(-c3ccc(F)cc3)ncn2[C@H]2CC[C@H](O)CC2)n1 | 6.1
Cc1cc(C=C2C(=O)C=CC2=O)cc(C)c1O | 0.8
C=CNC#N | 1.9
Cc1cc(Nc2nc(-c3ccccc3)nc3ccccc23)n[nH]1 | 7.4
c1ccc(-c2n[nH]c3c2oc2ccccc23)cc1 | 4.3
CCN(CC)CCNC(=O)c1c(C)[nH]c(/C=C2\C(=O)Nc3ccc(Cl)cc32)c1C [SU-11652] | 10.2

target: T2, Lymphokine-activated killer T-cell-originated protein kinase (Homo sapiens) (UniProt Q96KB5)
T2 sequence (whole entry): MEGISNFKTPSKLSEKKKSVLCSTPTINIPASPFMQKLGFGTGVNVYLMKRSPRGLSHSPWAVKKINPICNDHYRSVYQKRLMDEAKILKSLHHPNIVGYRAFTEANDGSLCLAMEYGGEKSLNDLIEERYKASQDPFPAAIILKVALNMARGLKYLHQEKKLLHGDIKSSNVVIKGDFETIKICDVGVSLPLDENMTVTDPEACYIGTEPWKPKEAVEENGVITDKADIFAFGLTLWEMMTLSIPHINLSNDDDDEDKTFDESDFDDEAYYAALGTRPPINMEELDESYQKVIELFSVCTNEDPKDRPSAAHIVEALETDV

Structure (SMILES) | ΔTm [°C]
COc1nccc(-c2c(-c3ccc(F)cc3)ncn2[C@H]2CC[C@H](O)CC2)n1 | 0.7
Cc1cc(C=C2C(=O)C=CC2=O)cc(C)c1O | 0.2
C=CNC#N | -1.1
Cc1cc(Nc2nc(-c3ccccc3)nc3ccccc23)n[nH]1 | 0.9
c1ccc(-c2n[nH]c3c2oc2ccccc23)cc1 | -0.2
CCN(CC)CCNC(=O)c1c(C)[nH]c(/C=C2\C(=O)Nc3ccc(Cl)cc32)c1C [SU-11652] | -0.4

target: Cyclin-dependent kinase 2 (Homo sapiens, UniProt P24941)

Structure (SMILES) | ΔTm [°C]
COc1nccc(-c2c(-c3ccc(F)cc3)ncn2[C@H]2CC[C@H](O)CC2)n1 | -0.6
Cc1cc(C=C2C(=O)C=CC2=O)cc(C)c1O | 1
C=CNC#N | -0.2
Cc1cc(Nc2nc(-c3ccccc3)nc3ccccc23)n[nH]1 | 3
c1ccc(-c2n[nH]c3c2oc2ccccc23)cc1 | 0.7
CCN(CC)CCNC(=O)c1c(C)[nH]c(/C=C2\C(=O)Nc3ccc(Cl)cc32)c1C [SU-11652] | 0.9

target: Serine/threonine-protein kinase pim-3 (Homo sapiens) (UniProt Q86V86)

Structure (SMILES) | ΔTm [°C]
COc1nccc(-c2c(-c3ccc(F)cc3)ncn2[C@H]2CC[C@H](O)CC2)n1 | -0.2
Cc1cc(C=C2C(=O)C=CC2=O)cc(C)c1O | 3.6
C=CNC#N | 1
Cc1cc(Nc2nc(-c3ccccc3)nc3ccccc23)n[nH]1 | 5.2
c1ccc(-c2n[nH]c3c2oc2ccccc23)cc1 | -1.3
CCN(CC)CCNC(=O)c1c(C)[nH]c(/C=C2\C(=O)Nc3ccc(Cl)cc32)c1C [SU-11652] | 4.7

target: Casein kinase I isoform gamma-2 (Homo sapiens) (UniProt P78368)
Sequence (P78368 whole entry, looked up, canonical isoform): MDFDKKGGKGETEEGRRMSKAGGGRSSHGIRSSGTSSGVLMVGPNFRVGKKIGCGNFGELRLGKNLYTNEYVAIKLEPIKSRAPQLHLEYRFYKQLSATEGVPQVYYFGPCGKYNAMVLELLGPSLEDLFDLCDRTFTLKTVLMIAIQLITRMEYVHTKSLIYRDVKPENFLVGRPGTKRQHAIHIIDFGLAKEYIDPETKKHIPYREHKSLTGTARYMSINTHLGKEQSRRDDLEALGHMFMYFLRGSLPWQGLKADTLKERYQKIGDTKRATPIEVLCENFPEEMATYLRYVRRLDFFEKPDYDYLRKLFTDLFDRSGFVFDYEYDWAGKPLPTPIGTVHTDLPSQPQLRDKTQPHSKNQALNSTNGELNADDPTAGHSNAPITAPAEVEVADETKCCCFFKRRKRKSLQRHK

Structure (SMILES) | ΔTm [°C]
COc1nccc(-c2c(-c3ccc(F)cc3)ncn2[C@H]2CC[C@H](O)CC2)n1 | 1
Cc1cc(C=C2C(=O)C=CC2=O)cc(C)c1O | 0.5
C=CNC#N | 0.1
Cc1cc(Nc2nc(-c3ccccc3)nc3ccccc23)n[nH]1 | 3.3
c1ccc(-c2n[nH]c3c2oc2ccccc23)cc1 | 1
CCN(CC)CCNC(=O)c1c(C)[nH]c(/C=C2\C(=O)Nc3ccc(Cl)cc32)c1C [SU-11652] | 4

target: Serine/threonine-protein kinase RIO2 (Homo sapiens) (UniProt Q9BVS4)
Sequence (Q9BVS4 whole entry, looked up): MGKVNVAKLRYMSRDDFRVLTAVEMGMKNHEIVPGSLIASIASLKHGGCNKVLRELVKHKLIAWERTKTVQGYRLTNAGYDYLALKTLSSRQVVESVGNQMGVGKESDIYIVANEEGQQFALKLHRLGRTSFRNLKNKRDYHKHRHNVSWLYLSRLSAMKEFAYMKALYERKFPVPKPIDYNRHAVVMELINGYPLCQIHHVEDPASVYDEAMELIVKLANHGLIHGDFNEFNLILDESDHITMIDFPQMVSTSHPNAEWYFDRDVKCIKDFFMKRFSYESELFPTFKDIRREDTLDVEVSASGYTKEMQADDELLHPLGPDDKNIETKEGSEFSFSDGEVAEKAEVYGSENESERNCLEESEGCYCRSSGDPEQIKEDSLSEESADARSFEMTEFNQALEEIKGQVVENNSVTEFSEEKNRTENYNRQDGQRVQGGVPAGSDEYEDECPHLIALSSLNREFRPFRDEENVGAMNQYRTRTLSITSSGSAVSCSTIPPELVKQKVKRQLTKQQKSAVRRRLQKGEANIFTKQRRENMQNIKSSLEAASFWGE

Structure (SMILES) | ΔTm [°C]
COc1nccc(-c2c(-c3ccc(F)cc3)ncn2[C@H]2CC[C@H](O)CC2)n1 | 0
Cc1cc(C=C2C(=O)C=CC2=O)cc(C)c1O | 0.7
C=CNC#N | 0
Cc1cc(Nc2nc(-c3ccccc3)nc3ccccc23)n[nH]1 | 5.3
c1ccc(-c2n[nH]c3c2oc2ccccc23)cc1 | 2.9
CCN(CC)CCNC(=O)c1c(C)[nH]c(/C=C2\C(=O)Nc3ccc(Cl)cc32)c1C [SU-11652] | 1.6

target: Serine/threonine-protein kinase 16 (Homo sapiens) (UniProt O75716)
Sequence (O75716 whole entry): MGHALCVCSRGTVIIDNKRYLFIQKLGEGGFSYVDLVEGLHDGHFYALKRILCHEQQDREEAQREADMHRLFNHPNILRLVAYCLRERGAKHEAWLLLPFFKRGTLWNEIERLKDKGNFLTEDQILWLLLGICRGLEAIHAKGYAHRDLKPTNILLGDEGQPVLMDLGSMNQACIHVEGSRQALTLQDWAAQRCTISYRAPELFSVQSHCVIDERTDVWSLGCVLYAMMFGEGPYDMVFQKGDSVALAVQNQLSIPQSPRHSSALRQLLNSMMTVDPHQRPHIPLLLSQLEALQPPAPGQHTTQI

Structure (SMILES) | ΔTm [°C]
COc1nccc(-c2c(-c3ccc(F)cc3)ncn2[C@H]2CC[C@H](O)CC2)n1 | -0.2
Cc1cc(C=C2C(=O)C=CC2=O)cc(C)c1O | 3.2
C=CNC#N | 0
Cc1cc(Nc2nc(-c3ccccc3)nc3ccccc23)n[nH]1 | 5.6
c1ccc(-c2n[nH]c3c2oc2ccccc23)cc1 | 6.8
CCN(CC)CCNC(=O)c1c(C)[nH]c(/C=C2\C(=O)Nc3ccc(Cl)cc32)c1C [SU-11652] | 6

target: T3, Calcium/calmodulin-dependent protein kinase type IV (Homo sapiens) (UniProt Q16566)
T3 sequence (whole entry): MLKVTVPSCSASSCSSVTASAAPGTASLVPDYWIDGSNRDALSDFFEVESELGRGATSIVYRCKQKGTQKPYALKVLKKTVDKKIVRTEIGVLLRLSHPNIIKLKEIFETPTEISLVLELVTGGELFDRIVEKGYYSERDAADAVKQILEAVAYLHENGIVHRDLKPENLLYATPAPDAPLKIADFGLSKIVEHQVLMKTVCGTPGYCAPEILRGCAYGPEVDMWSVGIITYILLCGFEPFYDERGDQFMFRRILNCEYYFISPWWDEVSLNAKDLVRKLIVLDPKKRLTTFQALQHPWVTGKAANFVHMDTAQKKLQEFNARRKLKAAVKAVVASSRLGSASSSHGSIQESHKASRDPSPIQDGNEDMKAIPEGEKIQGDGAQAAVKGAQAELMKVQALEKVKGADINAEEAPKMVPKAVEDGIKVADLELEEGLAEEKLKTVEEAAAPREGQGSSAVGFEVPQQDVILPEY

Structure (SMILES) | ΔTm [°C]
COc1nccc(-c2c(-c3ccc(F)cc3)ncn2[C@H]2CC[C@H](O)CC2)n1 | 0.2
Cc1cc(C=C2C(=O)C=CC2=O)cc(C)c1O | -0.1
C=CNC#N | 0.9
Cc1cc(Nc2nc(-c3ccccc3)nc3ccccc23)n[nH]1 | 4.7
c1ccc(-c2n[nH]c3c2oc2ccccc23)cc1 | -0.2
CCN(CC)CCNC(=O)c1c(C)[nH]c(/C=C2\C(=O)Nc3ccc(Cl)cc32)c1C [SU-11652] | 3.3

target: Serine/threonine-protein kinase VRK2 (Homo sapiens) (UniProt Q86Y07)
Sequence (Q86Y07 whole entry): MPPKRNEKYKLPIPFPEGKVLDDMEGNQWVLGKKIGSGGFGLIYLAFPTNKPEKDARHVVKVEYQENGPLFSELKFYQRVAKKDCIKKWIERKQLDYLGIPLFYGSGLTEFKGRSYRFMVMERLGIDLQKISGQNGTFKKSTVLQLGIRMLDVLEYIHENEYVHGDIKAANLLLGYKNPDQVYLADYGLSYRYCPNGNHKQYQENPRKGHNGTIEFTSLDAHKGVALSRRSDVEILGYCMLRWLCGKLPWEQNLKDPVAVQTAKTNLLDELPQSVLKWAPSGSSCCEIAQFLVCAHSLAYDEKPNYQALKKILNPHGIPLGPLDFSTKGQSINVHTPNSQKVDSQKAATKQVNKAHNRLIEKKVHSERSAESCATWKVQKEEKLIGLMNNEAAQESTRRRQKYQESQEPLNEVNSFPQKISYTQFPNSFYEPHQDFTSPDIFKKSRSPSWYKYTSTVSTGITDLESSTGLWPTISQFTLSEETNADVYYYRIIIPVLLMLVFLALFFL

Structure (SMILES) | ΔTm [°C]
COc1nccc(-c2c(-c3ccc(F)cc3)ncn2[C@H]2CC[C@H](O)CC2)n1 | 0.8
Cc1cc(C=C2C(=O)C=CC2=O)cc(C)c1O | 0.2
C=CNC#N | 0.2
Cc1cc(Nc2nc(-c3ccccc3)nc3ccccc23)n[nH]1 | 0.4
c1ccc(-c2n[nH]c3c2oc2ccccc23)cc1 | 0.6
CCN(CC)CCNC(=O)c1c(C)[nH]c(/C=C2\C(=O)Nc3ccc(Cl)cc32)c1C [SU-11652] | 0.7
